Data on seven compounds can be found in US7585895B2, “Therapeutic substituted cyclopentanes” (Allergan, Inc., priority 2005, dated 2009).

One may read the EC50 as the concentration that produces a half-maximal response.

Common to all, as to format: cell-based
In assay [1] the target is T1, hEP3A/Gqi5 (Homo sapiens, UniProt P43115).
T1 construct: expressed in transfected cells
T1 sequence (P43115 1-390): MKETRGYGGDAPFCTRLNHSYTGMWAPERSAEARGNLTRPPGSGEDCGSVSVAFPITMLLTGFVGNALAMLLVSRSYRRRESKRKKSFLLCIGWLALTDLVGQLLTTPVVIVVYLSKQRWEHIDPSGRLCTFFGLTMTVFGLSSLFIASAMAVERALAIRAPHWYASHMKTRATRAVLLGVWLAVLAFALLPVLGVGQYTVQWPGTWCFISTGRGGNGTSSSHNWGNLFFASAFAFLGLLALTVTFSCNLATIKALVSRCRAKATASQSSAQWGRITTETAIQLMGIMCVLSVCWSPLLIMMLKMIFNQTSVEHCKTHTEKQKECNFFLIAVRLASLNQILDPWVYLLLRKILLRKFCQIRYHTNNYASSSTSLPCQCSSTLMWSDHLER
The assay can be described thus: FLIPR calcium signal, EP3. Particulars: HEK-293(EBNA); for EC50: read-out: Ca2+ Signal-EC50 (nM) EP3. The method, boiled down:
(§1)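 Stably transfected HEK-293(EBNA) cells loaded with 2 μM Fluo-4 AM in HBSS-HEPES pH 7.4, 37° C; peak fluorescence rise after compound addition (FLIPR, 488 nm excitation) expressed relative to buffer and standard agonist controls (PGE2 for EP subtypes, U-46619 for TP). Tested 10^−5 to 10^−11 M, duplicates, n≧3.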

Assay [2] concerns the target T2, hEP2/Gqs5 (Homo sapiens, UniProt P43116).
T2 construct: expressed in transfected cells
Nature of the assay: FLIPR calcium signal, EP2. Particulars: HEK-293(EBNA), value outside parentheses, read-out: Ca2+ Signal-EC50 (nM) EP2. The procedure, abridged:
as §1

The target in assay [3] is T3, hEP1 (Homo sapiens, UniProt P34995).
T3 construct: expressed in transfected cells
T3 sequence (P34995 1-402): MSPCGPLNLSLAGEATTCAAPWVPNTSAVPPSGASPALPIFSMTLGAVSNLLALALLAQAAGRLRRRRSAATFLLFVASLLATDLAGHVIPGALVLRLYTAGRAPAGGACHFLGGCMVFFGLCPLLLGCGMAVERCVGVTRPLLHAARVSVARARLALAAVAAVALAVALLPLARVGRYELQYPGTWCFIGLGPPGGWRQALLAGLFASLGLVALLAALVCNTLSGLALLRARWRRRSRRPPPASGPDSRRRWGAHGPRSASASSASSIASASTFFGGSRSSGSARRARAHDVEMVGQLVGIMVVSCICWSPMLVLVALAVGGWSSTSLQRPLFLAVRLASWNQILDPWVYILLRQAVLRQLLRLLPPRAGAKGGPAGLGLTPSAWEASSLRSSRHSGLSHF
The assay can be described thus: FLIPR calcium signal, EP1. The settings on record: HEK-293(EBNA). The procedure, abridged: as §1

In assay [4] the target is T4, hEP4/Gqs5 (Homo sapiens, UniProt P35408).
T4 construct: expressed in transfected cells
The assay can be described thus: FLIPR calcium signal, EP4. Particulars: HEK-293(EBNA); for EC50: read-out: Ca2+ Signal-EC50 (nM) EP4. The procedure, abridged:
as §1

In assay [5] the target is T5, hTP (Homo sapiens, UniProt P21731).
T5 construct: expressed in transfected cells
T5 sequence (P21731 1-343): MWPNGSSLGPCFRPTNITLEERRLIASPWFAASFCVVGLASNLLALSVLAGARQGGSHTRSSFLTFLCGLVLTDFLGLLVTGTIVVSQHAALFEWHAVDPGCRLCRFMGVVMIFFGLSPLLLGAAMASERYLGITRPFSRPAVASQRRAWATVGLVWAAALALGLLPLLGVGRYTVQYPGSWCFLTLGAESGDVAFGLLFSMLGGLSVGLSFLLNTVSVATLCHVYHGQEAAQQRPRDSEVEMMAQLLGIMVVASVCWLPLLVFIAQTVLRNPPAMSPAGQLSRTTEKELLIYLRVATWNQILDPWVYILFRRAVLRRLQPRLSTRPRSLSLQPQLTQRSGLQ
The assay can be described thus: FLIPR calcium signal, TP. Particulars: HEK-293(EBNA). The method, boiled down: as §1

The target of assay [6] is EP2 (Homo sapiens, UniProt P43116). The assay can be described thus: cAMP assay, HEK-EBNA cells expressing EP2. Also on record: expressed in transfected cells; host or cells: HEK-EBNA. The settings on record: value in parentheses in EP2 column, read-out: EP2 EC50 (nM), measurement of cAMP (data in parentheses). The method, boiled down: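 HEK-EBNA cells expressing EP2 (10^4 cells per well) were stimulated for 30 min at room temperature with compound in HBSS containing 0.1% BSA, 0.5 mM IBMX and 5 mM HEPES, pH 7.4. Compounds ran in 16-point serial dilutions in triplicate. cAMP was detected by AlphaScreen competition between anti-cAMP acceptor beads and biotin-cAMP/streptavidin donor beads.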
Sequence of EP2 (P43116 whole entry): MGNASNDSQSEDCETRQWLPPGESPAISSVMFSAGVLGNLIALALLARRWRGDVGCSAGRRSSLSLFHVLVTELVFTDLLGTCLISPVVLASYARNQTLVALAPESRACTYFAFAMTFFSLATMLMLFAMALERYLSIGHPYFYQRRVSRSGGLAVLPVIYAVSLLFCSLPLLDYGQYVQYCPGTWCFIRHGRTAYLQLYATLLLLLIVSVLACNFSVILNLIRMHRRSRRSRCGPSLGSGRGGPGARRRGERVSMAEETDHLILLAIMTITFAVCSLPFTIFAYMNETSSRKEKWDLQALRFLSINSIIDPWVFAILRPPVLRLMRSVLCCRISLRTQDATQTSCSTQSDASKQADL

T2 sequence (P43116 whole entry): as above
T4 sequence (P35408 whole entry): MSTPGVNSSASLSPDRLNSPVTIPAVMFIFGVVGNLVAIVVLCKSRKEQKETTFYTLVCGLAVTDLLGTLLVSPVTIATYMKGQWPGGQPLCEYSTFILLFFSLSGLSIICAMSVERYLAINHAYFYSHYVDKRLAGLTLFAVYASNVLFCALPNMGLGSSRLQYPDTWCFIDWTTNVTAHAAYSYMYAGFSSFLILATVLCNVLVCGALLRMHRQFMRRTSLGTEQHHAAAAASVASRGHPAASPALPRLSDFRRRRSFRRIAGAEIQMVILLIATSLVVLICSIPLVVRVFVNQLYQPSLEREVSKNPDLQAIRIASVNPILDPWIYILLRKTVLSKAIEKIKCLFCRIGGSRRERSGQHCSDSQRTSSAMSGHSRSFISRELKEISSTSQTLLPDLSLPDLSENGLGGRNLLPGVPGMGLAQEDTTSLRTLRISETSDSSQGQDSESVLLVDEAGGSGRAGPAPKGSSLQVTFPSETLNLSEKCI

Consider `O=C(O)CCCCCC[C@@H]1[C@@H](c2ccc(C(O)Cc3ccccc3)cc2)[C@H](O)C[C@H]1Cl` (stereo partly drawn) [Entry 22, 7-{(1 R,2S,3R,5R)-5-Chloro-3-hydroxy-2-[4-(1-hydroxy-2-phenyl-ethyl)-phenyl]-cyclopentyl}-heptanoic acid], for which the “Ca2+ Signal-EC50 (nM) EP3” value in assay [1] was “not active”. For the same compound, the results for the EC50 in assay [2], in assay [4] and in assay [6] were 51 nM, 15800 nM and 59 nM, respectively. For the same compound, in assay [3], the “Ca2+ Signal-EC50 (nM) EP1” value is “not active”. Further, the “Ca2+ Signal-EC50 (nM) TP” value in assay [5] is reported as “not active”.
Consider `O=C(O)CCC/C=C\C[C@@H]1[C@@H](c2ccc(C(O)CCc3ccccc3)cc2)[C@H](O)C[C@H]1Cl` (stereo partly drawn) [Entry 23, (Z)-7-{(1R,2S,3R,5R)-5-Chloro-3-hydroxy-2-[4-(1-hydroxy-3-phenyl-propyl)-phenyl]-cyclopentyl}-hept-5-enoic acid], for which the EC50 is 13700 nM in assay [1], 548 nM in assay [2], greater than 10000 nM in assay [4] and 125 nM in assay [6]. For the same compound, in assay [3], the “Ca2+ Signal-EC50 (nM) EP1” value was “not active”. Further, in assay [5], the “Ca2+ Signal-EC50 (nM) TP” value was “not active”.
As for `O=C(O)CCCCCC[C@@H]1[C@@H](c2ccc(C(O)CCc3ccccc3)cc2)[C@H](O)C[C@H]1Cl` (stereo partly drawn) [Entry 24, 7-{(1R,2S,3R,5R)-5-Chloro-3-hydroxy-2-[4-(1-hydroxy-3-phenyl-propyl)-phenyl]-cyclopentyl}-heptanoic acid], the EC50 in assay [1] is 8830 nM; in assay [2], 735 nM; in assay [3] (read-out: Ca2+ Signal-EC50 (nM) EP1), 4520 nM; in assay [4], greater than 10000 nM; in assay [6], 628 nM. Moreover, in assay [5], the “Ca2+ Signal-EC50 (nM) TP” value is “not active”.
For the compound `CCCCCCC(O)c1ccc([C@@H]2[C@@H](C/C=C\CCCC(=O)O)[C@H](Cl)C[C@H]2O)cc1` (stereo partly drawn) [Entry 25, (Z)-7-{(1R,2S,3R,5R)-5-Chloro-3-hydroxy-2-[4-(1-hydroxy-heptyl)-phenyl]-cyclopentyl}-hept-5-enoic acid], the values for the EC50 in assay [1], in assay [2] and in assay [6] were 5930 nM, 58 nM and 12 nM, respectively. In addition, the “Ca2+ Signal-EC50 (nM) EP1” value in assay [3] was “not active”. The “Ca2+ Signal-EC50 (nM) EP4” value in assay [4] is “not active”. The “Ca2+ Signal-EC50 (nM) TP” value in assay [5] was “not active”.
On to `CCCC(O)c1ccc([C@@H]2[C@@H](C/C=C\CCCC(=O)O)[C@H](Cl)C[C@H]2O)cc1` (stereo partly drawn) [Entry 26, (Z)-7-{(1R,2S,3R,5R)-5-Chloro-3-hydroxy-2-[4-(1-hydroxy-butyl)-phenyl]-cyclopentyl}-hept-5-enoic acid], for which, in assay [1], the “Ca2+ Signal-EC50 (nM) EP3” value is given as “not active”. In addition, the EC50 in assay [2] was determined as 154 nM; in assay [6], 7 nM. In assay [3], the “Ca2+ Signal-EC50 (nM) EP1” value is reported as “not active”. Also, the “Ca2+ Signal-EC50 (nM) EP4” value in assay [4] is on record as “not active”. The “Ca2+ Signal-EC50 (nM) TP” value in assay [5] is reported as “not active”.
As to `O=C(O)CCC/C=C\C[C@@H]1[C@@H](c2ccc(C(O)c3ccccc3)cc2)[C@H](O)C[C@H]1Cl` (stereo partly drawn) [Entry 28, (Z)-7-{(1R,2S,3R,5R)-5-Chloro-3-hydroxy-2-[4-(hydroxy-phenyl-methyl)-phenyl]-cyclopentyl}-hept-5-enoic acid], the “Ca2+ Signal-EC50 (nM) EP3” value in assay [1] was “not active”. In addition, the concentration giving a half-maximal response (EC50) in assay [2] came to 142 nM; in assay [6], 9 nM. Besides, in assay [3], the “Ca2+ Signal-EC50 (nM) EP1” value is on record as “not active”. Moreover, the “Ca2+ Signal-EC50 (nM) EP4” value in assay [4] is “not active”. Moreover, the “Ca2+ Signal-EC50 (nM) TP” value in assay [5] was “not active”.
As to `CCCCCC(O)c1cccc([C@@H]2[C@@H](C/C=C\CCCC(=O)O)[C@H](Cl)C[C@H]2O)c1` (stereo partly drawn) [Entry 29, (Z)-7-{(1R,2S,3R,5R)-5-Chloro-3-hydroxy-2-[3-(1-hydroxy-hexyl)-phenyl]-cyclopentyl}-hept-5-enoic acid], the EC50 was determined as 37 nM in assay [1], 119 nM in assay [2] and 38 nM in assay [6]. The “Ca2+ Signal-EC50 (nM) EP1” value in assay [3] is recorded as “not active”. The “Ca2+ Signal-EC50 (nM) EP4” value in assay [4] is recorded as “not active”. The “Ca2+ Signal-EC50 (nM) TP” value in assay [5] is listed as “not active”.
